Test results taken from US7138376B2, “Methods and compositions for treating hepatitis C virus using 4'-modified nucleosides” (Idenix Pharmaceuticals, Inc., priority 2001, dated 2006).

Experiments:
[1] = test system: HCV; conditions: cited from earlier work
[2] = test system: HCV protease; conditions: SDS-PAGE and autoradiography assay; cited from earlier work
[3] = test system: MDBK; test: Cytotoxicity assay (CC50, sulforhodamine B staining); assay type: cell-based; conditions: MDBK cells; 4 days incubation; concentration reducing cell number by 50%; preliminary results
Protocol: The test compounds were dissolved in DMSO at an initial concentration of 200 μM and then were serially diluted in culture medium.
Cells are seeded at a rate of between 5×10^3 and 5×10^4/well into 96-well plates in growth medium overnight at 37° C. in a humidified CO2 (5%) atmosphere. New growth medium containing serial dilutions of the drugs is then added. After incubation for 4 days, cultures are fixed in 50% TCA and stained with sulforhodamineB. The optical density was read at 550 nm. The cytotoxic concentration was expressed as the concentration required to reduce the cell number by 50% (CC50).

SMILES | melting point | CC50 [3] | also measured
NC(=O)c1ncn([C@@H]2O[C@H](CO)[C@@H](O)[C@H]2O)n1 [Ribavirin, 1-β-D-ribofuranosyl-1-1,2,4-triazole-3-carboxamide] |  |  | effect on serum levels of HCV-RNA ([1]; patients, sole treatment): does not lower serum levels of HCV-RNA; patients in whom serum amino transferase levels are reduced to normal ([1]; ribavirin alone): 40%
CCCC(=O)c1cc2c(c(O)c1C)C(=O)C(=O)c1c(O)cccc1-2 [Sch 68631] |  |  | activity against HCV protease [2]: micromolar activity
C[C@]1(CO)O[C@@H](n2ccc(=S)[nH]c2=O)[C@H](O)[C@@H]1O [β-D-4′-CH3-ribo-4-thioU, 1-(4-C-methyl-β-D-ribofuranosyl)4-thio-uracil] | 65 to 70 °C (dec.) | > 250 µM | 
C[C@]1(CO)O[C@@H](n2cc(F)c(=O)[nH]c2=O)[C@H](O)[C@@H]1O [β-D-4′-CH3-ribo-5-fluoroU] |  | > 167 µM | 
C[C@]1(CO)O[C@@H](n2cnc3c(N)ncnc32)[C@H](O)[C@@H]1O [β-D-4′-CH3-riboA, 9-(4-C-methyl-β-D-ribofuranosyl) adenine] | 96 to 97 °C (dec.) | > 250 µM | 
C[C@]1(CO)O[C@@H](n2ccc(N)nc2=O)[C@H](O)[C@@H]1O [β-D-4′-CH3-riboC, 1-(4-C-methyl-β-D-ribofuranosyl)cytosine] |  | > 250 µM | 
C[C@]1(CO)O[C@@H](n2cnc3c(=O)[nH]c(N)nc32)[C@H](O)[C@@H]1O [β-D-4′-CH3-riboG, 9-(4-C-methyl-β-D-ribofuranosyl) guanine] |  | > 250 µM | 
Cc1cn([C@@H]2O[C@](C)(CO)[C@@H](O)[C@H]2O)c(=O)[nH]c1=O [β-D-4′-CH3-riboT, 1-(4-C-methyl-β-D-ribofuranosyl)thymine] | 258 to 260 °C (dec.) | > 250 µM | 
